# According to ChEMBL document CHEMBL4715853 (J Med Chem, 2020):
# What was measured:
# SARS-CoV-2 [1] = assay: Antiviral actvity against SARS-CoV2 infected in human assessed as improvement rate of chest at 400 mg, po administered twice daily cotreated with 100 mg ritonavir and measured after 14 days by computed tomography; assay type: functional, Severe acute respiratory syndrome coronavirus 2; details: time 14 day
# [2] = Cytotoxicity against human Huh-7 cells incubated for 1 hr by MTS assay; assay type: cell-based
# [3] = Cytotoxicity against African green monkey Vero E6 cells incubated for 3 days by the MTS assay; assay type: cell-based, Vero C1008; details: chlorocebus sabaeus, time 3 day
# [4] = Toxicity in human infected with SARS-CoV2 assessed as adverse events at 400 mg, po administered twice daily cotreated with 100 mg ritonavir and measured after 14 days; assay type: organism-based; details: in vivo, 336 h, time 14 day
# Human coronavirus OC43 [5] = assay: Antiviral activity against wild type HCoV-OC43 infected in BHK-21 cells incubated for 72 hrs by RT-PCR method; assay type: functional, cell-based; details: Betacoronavirus 1, BHK-21, 72 h
# SARS-CoV [6] = assay: Antiviral activity against SARS-CoV BJ-001 infected in African green monkey Vero E6 cells assessed as reduction in virus induced cytopathic effect by visual observation; assay type: functional, organism-based; details: Severe acute respiratory syndrome-related coronavirus, BJ-001, Vero C1008
# SARS-CoV [7] = assay: Antiviral activity against SARS-CoV BJ-001 infected in African green monkey Vero E6 cells assessed as reduction in virus induced cytopathic effect incubated for 72 hrs by MTS/phenazine methosulfate method; assay type: functional, organism-based; details: Severe acute respiratory syndrome-related coronavirus, BJ-001, Vero C1008, 72 h
# [8] = Cytotoxicity against African green monkey Vero E6 cells incubated for 72 hrs by MTS assay; assay type: cell-based, Vero C1008; details: chlorocebus sabaeus
# [9] = Selectivity ratio of CC50 for HAE cells to EC50 for SARS-CoV BJ-001 infected in African green monkey Vero E6 cells; assay type: toxicity, Vero C1008
# [10] = Antiviral activity against HCoV-NL63 infected in Rhesus macaque LLC-MK2 cells incubated for 72 hrs by RT-PCR method; assay type: functional, cell-based; details: Human coronavirus NL63, LLC-MK2, 72 h
# Human coronavirus OC43 [11] = assay: Antiviral activity against HCoV-OC43 infected in BALB/c mouse assessed as protection against virus-induced lethal infection at 15 mg/kg, ip administered for 14 days and measured up to 20 days; assay type: functional; details: time day <=20
# in vitro [12] = details: hamster, BHK-21 cells
# in vitro [13] = details: hamster, BHK-21 cells; remark: listed apart in the source
# in vitro [14] = details: rhesus monkey, LLC-MK2 cells
# in vitro [15] = details: rhesus monkey, LLC-MK2 cells; remark: listed apart in the source
# SARS-CoV-2 [16] = assay: Antiviral activity against 2019-nCoV BetaCoV/Wuhan/WIV04/2019 infected in African green monkey VeroE6 cells assessed as reduction in viral yield preincubated with virus for 1 hr followed by cell infection and […] by qRT-PCR method; assay type: functional, organism-based; details: Severe acute respiratory syndrome coronavirus 2, BetaCoV/Wuhan/WIV04/2019, Vero C1008
# [17] = Cytotoxicity against African green monkey Vero E6 cells by the CCK8 assay; assay type: cell-based, Vero C1008; details: chlorocebus sabaeus
# [18] = Selectivity index, ratio of CC50 for African green monkey Vero E6 cells to EC50 for 2019-nCoV Beta CoV/Wuhan/WIV04/2019 infected in African green monkey Vero E6 cells; assay type: toxicity, Vero C1008; details: read-out: Ratio CC50/EC50
# [19] = Selectivity index, ratio of CC50 for African green monkey Vero E6 cells to EC50 for SARS-CoV infected in African green monkey Vero E6 cells; assay type: toxicity, Vero C1008; details: read-out: Ratio CC50/EC50
# [20] = Cytotoxicity against African green monkey Vero E6 cells incubated for 2 days by the MTS assay; assay type: cell-based, Vero C1008; details: chlorocebus sabaeus, time 2 day
# SARS-CoV [21] = assay: Antiviral activity against SARS-CoV infected in African green monkey Vero E6 cells assessed as reduction in viral replication by ELISA; assay type: functional, organism-based; details: Severe acute respiratory syndrome-related coronavirus, Vero C1008
Compound,EC50 (Human coronavirus OC43 [5]),EC50 [10],CC50 at 72 h (in vitro [12]),selectivity ratio (in vitro [13]),CC50 at 72 h (in vitro [14]),selectivity ratio (in vitro [15]),CC50 [17],further results
Cc1cccc(C)c1OCC(=O)N[C@@H](Cc1ccccc1)[C@@H](O)C[C@H](Cc1ccccc1)NC(=O)[C@H](C(C)C)N1CCCNC1=O [LOPINAVIR],–,–,–,–,–,–,–,Activity (SARS-CoV-2 [1]): 62.2%; CC50 at 1 h [2]: > 37.6 µM; CC50 at 72 h [3]: > 32 µM; Activity [4]: 55.6%
O[C@H]1[C@H]2c3cc4c(cc3CN3CCC(=C[C@@H]1O)[C@H]23)OCO4 [LYCORINE],0.15 µM,0.47 µM,4.37 µM,29.1,3.81 µM,8.11,–,IC50 (SARS-CoV [6]): 0.0157 µM; IC50 (SARS-CoV [7]): 0.0157 µM; CC50 at 72 h [8]: 14.9 µM; selectivity ratio [9]: 954; Activity (Human coronavirus OC43 [11]): 83.3%
CC[C@@]1([C@H]2O[C@H]([C@H]3O[C@@](O)(CO)[C@H](C)C[C@@H]3C)C[C@H]2C)CC[C@H]([C@@]2(C)CC[C@]3(C[C@H](O)[C@@H](C)[C@@H]([C@H](C)[C@H](OC)[C@@H](C)C(=O)O)O3)O2)O1 [MONENSIN SODIUM],3.81 µM,1.54 µM,–,–,–,–,–,–
COc1c(C)c2c(c(O)c1C/C=C(\C)CCC(=O)OCCN1CCOCC1)C(=O)OC2 [MYCOPHENOLATE MOFETIL],1.58 µM,0.23 µM,3.43 µM,2.2,3.01 µM,13,–,–
COc1c(C)c2c(c(O)c1C/C=C(\C)CCC(=O)O)C(=O)OC2 [MYCOPHENOLIC ACID],1.95 µM,0.18 µM,3.55 µM,1.8,3.44 µM,19,–,–
N=C(N)c1ccc2cc(OC(=O)c3ccc(N=C(N)N)cc3)ccc2c1 [NAFAMOSTAT],–,–,–,–,–,–,> 100 µM,EC50 (SARS-CoV-2 [16]): 22.5 µM; selectivity ratio [18]: > 4.4
CC(=O)Oc1ccccc1C(=O)Nc1ncc([N+](=O)[O-])s1 [NITAZOXANIDE],–,–,–,–,–,–,> 35.5 µM,EC50 (SARS-CoV-2 [16]): 2.12 µM; selectivity ratio [18]: > 16.7
Nc1nc2c(ncn2CCC(CO)CO)c(=O)[nH]1 [PENCICLOVIR],–,–,–,–,–,–,> 400 µM,IC50 (SARS-CoV-2 [16]): 95.9 µM; selectivity ratio [18]: > 4.2
Nc1ccc(/N=N/c2ccccc2)c(N)n1 [PHENAZOPYRIDINE],1.9 µM,2.02 µM,> 20 µM,> 10,> 20 µM,> 9.9,–,–
Cc1cc(/C=C/c2ccc3cc(N(C)C)ccc3[n+]2C)c(C)n1-c1ccccc1 [PYRVINIUM PAMOATE],3.21 µM,3.35 µM,–,–,–,–,–,–
COC(=O)[C@H]1[C@H]2C[C@@H]3c4[nH]c5cc(OC)ccc5c4CCN3C[C@H]2C[C@@H](OC(=O)c2cc(OC)c(OC)c(OC)c2)[C@@H]1OC [RESERPINE],–,–,–,–,–,–,–,selectivity ratio [19]: 7.3; CC50 at 48 h [20]: 25 µM; IC50 (SARS-CoV [21]): 3.4 µM
NC(=O)c1ncn([C@@H]2O[C@H](CO)[C@@H](O)[C@H]2O)n1 [RIBAVIRIN],–,–,–,–,–,–,> 400 µM,–
CC(C)[C@@H]1NC(=O)[C@H](C)OC(=O)[C@@H](C(C)C)NC(=O)[C@@H](C(C)C)OC(=O)[C@H](C(C)C)NC(=O)[C@H](C)OC(=O)[C@@H](C(C)C)NC(=O)[C@@H](C(C)C)OC(=O)[C@H](C(C)C)NC(=O)[C@H](C)OC(=O)[C@@H](C(C)C)NC(=O)[C@@H](C(C)C)OC1=O [VALINOMYCIN],–,–,–,–,–,–,–,selectivity ratio [19]: 80; CC50 at 48 h [20]: 68 µM; IC50 (SARS-CoV [21]): 0.85 µM
